Reference: BindingDB's records for patent US10308662 (Signal Rx Pharmaceuticals, 2019)
pIC50: −log10 of the molar value.

Target: T1, Bromodomain-containing protein 4 [349-460] (Homo sapiens, UniProt O60885)
T1 construct: 349-460
Assay: in vitro […] inhibition assay

pIC50: 5.73
Compound: CCOC(=O)c1ccc(-c2csc3c(=O)cc(N4CCSCC4)oc23)cc1 [US10308662, Compound 125]
